Experimental data published in US4820834A, “Benzodiazepine analogs” (priority 1987, dated 1989).
Where two headings read alike, the source gives them in different places.

Experiments:
CCK receptor (pancreas) = target: T1, CCK receptor (pancreas) (Rattus norvegicus, UniProt P30551); experiment: CCK Receptor Binding (Pancreas): inhibition of ^125 I-CCK-33 binding; design: species or system Male Sprague-Dawley rats
T1 construct: The whole pancreas was dissected free of fat tissue and was homogenized; from tissue; host or cells: rat pancreas membranes (Sprague-Dawley)
T1 sequence (P30551 1-444): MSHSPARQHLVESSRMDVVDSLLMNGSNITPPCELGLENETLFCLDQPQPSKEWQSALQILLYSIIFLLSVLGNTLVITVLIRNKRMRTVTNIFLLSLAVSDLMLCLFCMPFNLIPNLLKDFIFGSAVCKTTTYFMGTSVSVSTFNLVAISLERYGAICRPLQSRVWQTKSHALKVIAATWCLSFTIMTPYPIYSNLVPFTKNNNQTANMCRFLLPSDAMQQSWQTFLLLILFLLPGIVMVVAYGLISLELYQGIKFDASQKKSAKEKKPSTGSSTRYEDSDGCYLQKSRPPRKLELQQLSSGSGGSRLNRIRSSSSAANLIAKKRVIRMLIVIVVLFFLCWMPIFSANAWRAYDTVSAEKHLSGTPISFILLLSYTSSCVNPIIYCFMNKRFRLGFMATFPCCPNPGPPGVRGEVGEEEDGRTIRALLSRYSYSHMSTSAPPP
In short: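 Bound ^125I-CCK-33 was counted in pellets after a 30 min, 37° C incubation followed by centrifugation. Membranes came from male Sprague-Dawley rat pancreas, assayed in Tris HCl pH 7.7 containing DTT, bacitracin, PMSF and o-phenanthroline. For Scatchard analysis, tracer was diluted with rising unlabelled CCK-33.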

[1] = target: T2, CCK receptor (brain, cerebral cortex) (Cavia porcellus, UniProt H0VZC5); experiment: biochemical; format: binding, Male Hartley guinea pigs
T2 construct: Cerebral cortex was dissected and used as a receptor source; from tissue; host or cells: guinea pig cerebral cortex membranes (male Hartley)
T2 sequence (H0VZC5 1-426): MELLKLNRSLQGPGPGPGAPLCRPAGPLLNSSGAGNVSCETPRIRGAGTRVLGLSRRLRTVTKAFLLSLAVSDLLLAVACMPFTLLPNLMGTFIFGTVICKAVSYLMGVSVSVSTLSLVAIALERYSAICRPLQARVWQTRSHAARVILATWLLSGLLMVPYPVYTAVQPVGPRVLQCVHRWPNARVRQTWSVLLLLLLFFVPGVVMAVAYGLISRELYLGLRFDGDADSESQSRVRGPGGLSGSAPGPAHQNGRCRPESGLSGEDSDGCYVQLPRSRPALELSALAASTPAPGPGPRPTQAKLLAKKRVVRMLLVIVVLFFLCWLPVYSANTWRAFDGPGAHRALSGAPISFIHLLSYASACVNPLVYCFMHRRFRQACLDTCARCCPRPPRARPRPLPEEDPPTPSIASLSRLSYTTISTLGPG
In short: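 Binding of [radiolabeled] CCK-33 measured by gamma counting of centrifuged pellets after 2 h at 25°C. Membranes came from guinea pig brain cortex, suspended in 10 mM HEPES, 5 mM MgCl2, 1 mM EGTA, 0.25 mg/ml bacitracin, 0.4% BSA.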

[2] = target: T3, Gastrin receptor (gastric glands) (Cavia porcellus, UniProt H0VZC5); experiment: Gastrin Receptor Binding in Guinea Pig Gastric Glands; design: species or system guinea pig (male Hartley)
T3 construct: The washed guinea pig gastric glands prepared as above were resuspended; from tissue; host or cells: guinea pig gastric mucosal glands (male Hartley)
T3 sequence (H0VZC5 1-426): T2 sequence (H0VZC5 1-426)

[3] = rat pancreas membranes, ^125 I-CCK-33, 37° C., 30 minutes; read-out: IC50 ^125 I-CCK Pancreas
[4] = IC50 ^125 I-CCK Brain, guinea pig cerebral cortex, ^125 I-CCK-33, 25° C., 2 hours
[5] = ^125 I-gastrin, 25° C., 30 minutes, read-out: IC50 ^125 I-Gastrin Gastric Glands
[6] = IC50 ^125 I-Gastrin Gastric Glands, 25° C., 30 minutes
[7] = guinea pig cerebral cortex, ^125 I-CCK-33, 25° C., 2 hours; read-out: IC50 ^125 I-CCK Brain
[8] = IC50 ^125 I-CCK Pancreas, rat pancreas membranes, ^125 I-CCK-33, 37° C., 30 minutes

Structure (SMILES)	IC50 (CCK receptor (pancreas); [3]) [µM]	IC50 [1, 4] [µM]	IC50 [2, 5] [µM]	IC50 [2, 6] [µM]	IC50 [1, 7] [µM]	IC50 (CCK receptor (pancreas); [8]) [µM]	other results
CN1C(=O)[C@H](NC(=O)Nc2ccc(Cl)cc2)N=C(c2ccccc2)c2ccccc21 [Example 234, (R)-N-(4-Chlorophenyl)-N'-(2,3-dihydro-1-methyl-2-oxo-5-phenyl-1H-1,4-benzodiazepin-3-yl)-Urea]	1.1	0.0055	0.012				
CC(C)C(=O)N[C@H]1N=C(c2ccccc2)c2ccccc2N(C)C1=O [Example 189, (S)-N-(2,3-Dihydro-1-methyl-2-oxo-5-phenyl-1H-1,4-benzodiazepin-3-yl)-2-methylpropanamide]	1.1	> 100		73			
CCOC(=O)CCN1C(=O)C(NC(=O)Nc2ccc(Cl)cc2)N=C(c2ccccc2)c2ccccc21 (stereo not drawn) [Example 230, 3-((((4-Chlorophenyl)amino)carbonyl)amino)-2,3-dihydro-2-oxo-5-phenyl-1H-1,4-benzodiazepine-1-propanoic acid ethyl ester]	0.49	0.0051		0.035			
CN1C(=O)C(NC(=O)Nc2ccc(F)cc2)N=C(c2ccccc2)c2ccccc21 (stereo not drawn) [Example 259, N-(2,3-Dihydro-1-methyl-2-oxo-5-phenyl-1H-1,4-benzodiazepin-3-yl)-N'-(4-fluorophenyl)-urea]	0.046		0.014		0.066		
O=C(NC1N=C(c2ccccc2F)c2ccccc2NC1=S)OCc1ccccc1 (racemic) [Example 176, 1,3-Dihydro-5-(2-fluorophenyl)-3-(RS)-benzyloxycarbonylamino-2H-1,4-benzodiazeoin-2-thione]		10		3.2		1	
O=C(O)CN1C(=O)[C@@H](Cc2c[nH]c3ccccc23)N=C(c2ccccc2F)c2ccccc21 [Example 43]							IC50 (CCK receptor (pancreas); read-out: IC50 ^125 I-CCK Pancreas; rat pancreas membranes, ^125 I-CCK-33, 37° C., 30 minutes): 0.3 µM; IC50 ([1]; read-out: IC50 ^125 I-CCK Brain; guinea pig cerebral cortex, ^125 I-CCK-33, 25° C., 2 hours): 23 µM; IC50 ([2]; read-out: IC50 ^125 I-Gastrin Gastric Glands, 25° C., 30 minutes): 5 µM
CN1C(=O)[C@@H](NC(=O)c2cccc(Br)c2)N=C(c2ccccc2F)c2ccccc21 [Example 154, 3(S)-(+)-3-(3-Bromobenzoylamino)-1,3-dihydro-5-(2-fluorophenyl)-1-methyl-2H-1,4-benzodiazepin-2-one]	0.0035	3.5	0.5				
CN1C(=O)[C@@H](NC(=O)C(C)(C)C)N=C(c2ccccc2)c2ccccc21 [Example 193, (S)-N-(2,3-Dihydro-1-methyl-2-oxo-5-phenyl-1H-1,4-benzodiazepin-3-yl]-2,2-dimethylpropanamide]	1.6	> 100		13			
CN1C(=O)C(NC(=S)Nc2ccccc2)N=C(c2ccccc2)c2ccccc21 (stereo not drawn) [Example 277, N-(2,3-Dihydro-1-methyl-2-oxo-5-phenyl-1H-1,4-benzodiazepin-3-yl)-N'-phenylthiourea]			2.6		0.86	0.018	
CN1C(=O)[C@@H](NC(=O)Nc2ccc(Cl)cc2)N=C(c2ccccc2)c2ccccc21 [Example 233]	0.026	0.41	0.58				
COc1cccc(NC(=O)NC2N=C(c3ccccc3)c3cccc(C)c3NC2=O)c1 (stereo not drawn) [Example 288, N-(3-Methoxyphenyl)-N'-(2,3-dihydro-9-methyl-2-oxo-5-phenyl-1H-1,4-benzodiazepin-3-yl)-urea]			0.054		0.042	0.075	
CCCCCc1ccc(C(=O)N[C@H]2N=C(c3ccccc3F)c3ccccc3N(C)C2=O)cc1 [Example 228, (S)-N-(5-(2-Fluorophenyl)-2,3-dihydro-1-methyl-2-oxo-1H-1,4-benzodiazepin-3-yl)-4-pentylbenzamide]		100		60		0.049	
NCCCC[C@H]1N=C(c2ccccc2F)c2ccccc2NC1=O [Example 65, 1,3-Dihydro-5-(2'-fluorophenyl)-3(R)-(4-amino)butyl-2H-1,4-benzodiazepin-2-one]		> 100		> 1000		> 100	
O=C1Nc2ccccc2C(c2ccccc2F)=NC1NCc1cc2ccccc2[nH]1 (racemic) [Example 124, 1,3-Dihydro-5-(2-fluorophenyl)-3-(RS)-(2-indolylmethyl-amino)-2H-1,4-benzodiazepin-2-one]		100		> 10		0.25	
CCOC(=O)CN1C(=O)C(NC(=O)NC(C)C)N=C(c2ccccc2F)c2ccccc21 (stereo not drawn) [Example 205, 5-(2-Fluorophenyl)-2,5-dihydro-3-((((1-methylethyl)amino)carbonyl)amino)-2-oxo-1H-1,4-benzodiazepine-1-acetic acid ethyl ester]			33		> 0.3	35	
CN1C(=O)C(NC(=O)NCc2ccccc2)N=C(c2ccccc2)c2ccccc21 (stereo not drawn) [Example 251, N-(2,3-Dihydro-1-methyl-2-oxo-5-phenyl-1H-1,4-benzodiazepin-3-yl)-N'-phenylmethylurea]	0.49		0.42		0.86		
CN1C(=O)C(NC(=O)Nc2ccc(Cl)cc2)N=C(c2ccccc2)c2ccccc21 (stereo not drawn) [Example 217]	0.051	0.023	0.022				
CN1C(=O)C(NC(=O)c2ccc(Br)cc2)N=C(c2ccccc2)c2ccccc21 (stereo not drawn) [Example 216, 4-Bromo-N-(2,3-dihydro-1-methyl-2-oxo-5-phenyl-1H-1,4-benzodiazepin-3-yl)-benzamide]	0.001	2.4	1.7				
CN1C(=O)[C@@H](NC(=O)c2ccc(C(C)(C)C)cc2)N=C(c2ccccc2F)c2ccccc21 [Example 157, 3(S)-(+)-3-(4-t-Butylbenzoylamino)-1,3-dihydro-5-(2-fluorophenyl)-1-methyl-2H-1,4-benzodiazepin-2-one]	0.019		2.4		8		
CCN(CC)C(=O)C(C)N1C(=O)C(NC(=O)OCc2ccccc2)N=C(c2ccccc2)c2ccccc21 (stereo not drawn) [Example 244, (1-(2-(Diethylamino)-1-methyl-2-oxoethyl)-2,3-dihydro-2-oxo-5-phenyl-1H-1,4-benzodiazepin-3-yl)-carbamic acid phenylmethyl ester]			0.5		0.74	0.95	
CN1C(=O)[C@H](NC(=O)c2ccc(Cl)cc2)N=C(c2ccccc2F)c2ccccc21 [Example 90, 3(R)-(-)-1,3-Dihydro-3-(4-chlorobenzoylamino)-5-(2-fluorophenyl)-1-methyl-2H-1,4-benzodiazepin-2-one]	0.049	11	5.2				
O=C(CN1C(=O)C(NC(=O)OCc2ccccc2)N=C(c2ccccc2)c2ccccc21)NCc1ccccc1 (stereo not drawn) [Example 212, (2,3-Dihydro-2-oxo-1-(2-oxo-2-((phenylmethyl)amino)ethyl)-5-phenyl-1H-1,4-benzodiazepin-3-yl)-carbamic acid phenylmethyl ester]			0.6		0.4	1.9	
O=C(NC1N=C(c2ccccc2F)c2ccccc2NC1=S)c1cc2ccccc2[nH]1 (racemic) [Example 181, 1,3-Dihydro-5-(2-fluorophenyl)-3-(RS)-(2-indole) carbonylamino-2H-1,4-benzodiazepin-2-thione]		9.3		4.4		0.002	
Cc1ccc2c(c1)N(C)C(=O)C(NC(=O)c1cc3ccccc3[nH]1)N=C2c1ccccc1 (stereo not drawn) [Example 294, 3-N-(2,3-Dihydro-1,8-dimethyl-2-oxo-5-phenyl-1H-1,4-benzodiazepin-3-yl)-1H-indole-2-carboxamide]			0.04		0.038	0.0001	
